The values that follow come from ChEMBL document CHEMBL1201862, “PubChem BioAssay data set” (2004).

Calls of active or inactive are those of the source.

Experiment [1] deals with T1, Sentrin-specific protease 8 (Homo sapiens, UniProt Q96LD8).
T1 sequence (Q96LD8 whole entry): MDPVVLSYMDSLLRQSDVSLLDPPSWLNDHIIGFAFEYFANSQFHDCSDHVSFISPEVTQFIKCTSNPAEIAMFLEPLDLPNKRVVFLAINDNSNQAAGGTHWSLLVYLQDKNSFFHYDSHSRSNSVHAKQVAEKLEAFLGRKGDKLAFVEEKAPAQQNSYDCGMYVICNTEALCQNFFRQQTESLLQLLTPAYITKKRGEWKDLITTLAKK
Type of experiment: functional.

For experiment [2], the target named is T2, Caspase-6 (Homo sapiens, UniProt P55212).
T2 sequence (P55212 whole entry): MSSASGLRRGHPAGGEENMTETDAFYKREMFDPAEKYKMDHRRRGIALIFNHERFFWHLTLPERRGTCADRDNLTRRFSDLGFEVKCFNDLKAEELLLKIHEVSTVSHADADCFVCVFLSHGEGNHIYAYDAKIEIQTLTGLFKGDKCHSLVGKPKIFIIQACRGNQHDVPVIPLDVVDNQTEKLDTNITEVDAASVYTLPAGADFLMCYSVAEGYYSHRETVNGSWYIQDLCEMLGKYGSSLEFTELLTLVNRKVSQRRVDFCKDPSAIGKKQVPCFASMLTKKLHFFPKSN
Kind of experiment: human caspase-6 inhibitors, dose response, biochemical, VEID-R110 fluorescence, cherry-pick (AID 720632).

Experiment [3] deals with HEK293. Kind of experiment: Fluorescence-based counterscreen for potentiators or agonists of NPY-Y1: cell-based high-throughput dose response assay for inhibitors of cyclic nucleotide gated ion channel (CNGC) activity. In this assay, the parental HEK293 cell line transfected with a cyclic-nucleotide gated ion channel (CNGC)-based cAMP sensor is used to measure inhibition of isoproterenol-induced CNGC …. The experiment is classed as functional. To be noted: Homo sapiens. (In general: Counterscreens check selectivity or assay interference.)

For experiment [4], the target named is T3, Mannose-6-phosphate isomerase (Homo sapiens, UniProt P34949).
T3 sequence (P34949 whole entry): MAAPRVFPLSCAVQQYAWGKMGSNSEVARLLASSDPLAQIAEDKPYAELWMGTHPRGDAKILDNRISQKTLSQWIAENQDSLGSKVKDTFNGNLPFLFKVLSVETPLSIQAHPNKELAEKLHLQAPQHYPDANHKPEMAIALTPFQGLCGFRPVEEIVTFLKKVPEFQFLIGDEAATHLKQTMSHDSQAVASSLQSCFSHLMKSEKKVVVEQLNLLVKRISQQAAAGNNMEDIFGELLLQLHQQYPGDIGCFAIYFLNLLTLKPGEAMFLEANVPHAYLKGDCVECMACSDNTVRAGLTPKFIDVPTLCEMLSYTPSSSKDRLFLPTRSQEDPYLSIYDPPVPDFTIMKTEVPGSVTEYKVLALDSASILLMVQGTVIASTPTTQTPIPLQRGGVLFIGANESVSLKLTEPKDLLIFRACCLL
Kind of experiment: human PMI inhibitors, high substrate, primary screen, biochemical, fluorescence intensity, high mannose 6-phosphate (AID 1220).

The target in experiment [5] is RAC-gamma serine/threonine-protein kinase (Homo sapiens, UniProt Q9Y243). The experiment is classed as functional.
Experiment [6] concerns the target 5'-AMP-activated protein kinase catalytic subunit alpha-1 (Homo sapiens, UniProt Q13131). Type of experiment: functional.
The target in experiment [7] is Protein kinase C delta type (Homo sapiens, UniProt Q05655). Type of experiment: functional.
The target in experiment [8] is Activin receptor type-1 (Homo sapiens, UniProt Q04771). Kind of experiment: Navigating the Kinome. Panel member name: ACVR1. Type of experiment: functional.
Experiment [9] concerns the target Serine/threonine-protein kinase pim-1 (Homo sapiens, UniProt P11309). The experiment is classed as functional.
In experiment [10] the target is Mast/stem cell growth factor receptor Kit (Homo sapiens, UniProt P10721). The experiment is classed as functional.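 Note: KIT entry within a kinase panel assay.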
For experiment [11], the target named is Tyrosine-protein kinase ITK/TSK (Homo sapiens, UniProt Q08881). The experiment is classed as functional.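 Note: affinity for ITK measured as one member of a broad kinase panel profiling binding across the kinome.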
Experiment [12] addresses Testis-specific serine/threonine-protein kinase 1 (Homo sapiens, UniProt Q9BXA7). The experiment is classed as functional.
In experiment [13] the target is MAP/microtubule affinity-regulating kinase 3 (Homo sapiens, UniProt P27448). Type of experiment: functional.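 Note: MARK3 affinity measured as one member of a kinome panel.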
The target in experiment [14] is Non-receptor tyrosine-protein kinase TYK2 (Homo sapiens, UniProt P29597). Type of experiment: functional.
Experiment [15] deals with Tyrosine-protein kinase Srms (Homo sapiens, UniProt Q9H3Y6). Type of experiment: functional.
Experiment [16] concerns the target Hepatocyte growth factor receptor (Homo sapiens, UniProt P08581). Type of experiment: functional.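 Note: kinase panel profiling across the kinome, with MET as the panel member.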
Experiment [17] deals with Activated CDC42 kinase 1 (Homo sapiens, UniProt Q07912). The experiment can be described thus: Navigating the Kinome. Panel member name: ACK1. Type of experiment: functional.
In experiment [18] the target is Receptor-type tyrosine-protein kinase FLT3 (Homo sapiens, UniProt P36888). Type of experiment: functional.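 Note: FLT3 was tested as one member of a kinome-wide kinase panel.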
The target of experiment [19] is MAP kinase-activated protein kinase 3 (Homo sapiens, UniProt Q16644). Type of experiment: functional.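 Note: value comes from a kinome-wide profiling panel in which MAPKAPK3 is one of the panel members.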
Experiment [20] concerns the target Insulin-like growth factor 1 receptor (Homo sapiens, UniProt P08069). Kind of experiment: Navigating the Kinome. Panel member name: IGF1R. Type of experiment: functional.
For experiment [21], the target named is Interleukin-1 receptor-associated kinase 1 (Homo sapiens, UniProt P51617). The experiment is classed as functional.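 Note: IRAK1 tested as one member of a kinome panel.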
In experiment [22] the target is Platelet-derived growth factor receptor alpha (Homo sapiens, UniProt P16234). Kind of experiment: Navigating the Kinome. Panel member name: PDGFRA. The experiment is classed as functional.
Experiment [23] addresses Aurora kinase B (Homo sapiens, UniProt Q96GD4). The experiment is classed as functional.
For experiment [24], the target named is Tyrosine-protein kinase Fyn (Homo sapiens, UniProt P06241). The experiment is classed as functional.
The target of experiment [25] is 3-phosphoinositide-dependent protein kinase 1 (Homo sapiens, UniProt O15530). Type of experiment: functional.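 Note: value comes from the Navigating the Kinome panel, PDPK1 member.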
Experiment [26] concerns the target Cyclin-dependent kinase 7 (Homo sapiens, UniProt P50613). Type of experiment: functional.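 Note: value comes from a kinome-wide kinase profiling panel in which CDK7 is one member.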
Experiment [27] has as its target Fibroblast growth factor receptor 3 (Homo sapiens, UniProt P22607). The experiment is classed as functional.
Experiment [28] deals with Glycogen synthase kinase-3 beta (Homo sapiens, UniProt P49841). The experiment is classed as functional.
Experiment [29] deals with BDNF/NT-3 growth factors receptor (Homo sapiens, UniProt Q16620). Type of experiment: functional.
Experiment [30] deals with Mitogen-activated protein kinase 12 (Homo sapiens, UniProt P53778). The experiment is classed as functional.
Experiment [31] has as its target Mitogen-activated protein kinase 10 (Homo sapiens, UniProt P53779). The experiment can be described thus: Navigating the Kinome. Panel member name: MAPK10. The experiment is classed as functional.
In experiment [32] the target is Calcium/calmodulin-dependent protein kinase type II subunit alpha (Homo sapiens, UniProt Q9UQM7). The experiment can be described thus: Navigating the Kinome. Panel member name: CAMK2A. The experiment is classed as functional.
In experiment [33] the target is Leukocyte tyrosine kinase receptor (Homo sapiens, UniProt P29376). Kind of experiment: Navigating the Kinome. Panel member name: LTK. The experiment is classed as functional.
For experiment [34], the target named is Tyrosine-protein kinase FRK (Homo sapiens, UniProt P42685). Type of experiment: functional.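 Note: FRK tested as one member of a kinome panel.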
Tyrosine-protein kinase FRK, sequence (P42685 whole entry): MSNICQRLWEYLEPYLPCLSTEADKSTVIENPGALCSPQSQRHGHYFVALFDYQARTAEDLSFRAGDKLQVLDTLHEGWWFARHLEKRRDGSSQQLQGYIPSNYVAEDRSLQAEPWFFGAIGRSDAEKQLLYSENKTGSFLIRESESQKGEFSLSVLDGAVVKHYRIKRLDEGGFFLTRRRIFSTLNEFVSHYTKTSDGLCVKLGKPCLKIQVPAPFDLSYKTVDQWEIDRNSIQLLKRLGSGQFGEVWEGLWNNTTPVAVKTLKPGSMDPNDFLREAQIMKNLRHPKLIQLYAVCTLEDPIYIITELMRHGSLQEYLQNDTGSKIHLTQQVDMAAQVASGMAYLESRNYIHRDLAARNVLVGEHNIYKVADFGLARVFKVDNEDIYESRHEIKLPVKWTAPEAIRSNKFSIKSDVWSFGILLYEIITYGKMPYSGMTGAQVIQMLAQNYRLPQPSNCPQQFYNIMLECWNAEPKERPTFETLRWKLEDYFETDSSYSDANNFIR

Protein kinase C delta type, sequence (Q05655 whole entry): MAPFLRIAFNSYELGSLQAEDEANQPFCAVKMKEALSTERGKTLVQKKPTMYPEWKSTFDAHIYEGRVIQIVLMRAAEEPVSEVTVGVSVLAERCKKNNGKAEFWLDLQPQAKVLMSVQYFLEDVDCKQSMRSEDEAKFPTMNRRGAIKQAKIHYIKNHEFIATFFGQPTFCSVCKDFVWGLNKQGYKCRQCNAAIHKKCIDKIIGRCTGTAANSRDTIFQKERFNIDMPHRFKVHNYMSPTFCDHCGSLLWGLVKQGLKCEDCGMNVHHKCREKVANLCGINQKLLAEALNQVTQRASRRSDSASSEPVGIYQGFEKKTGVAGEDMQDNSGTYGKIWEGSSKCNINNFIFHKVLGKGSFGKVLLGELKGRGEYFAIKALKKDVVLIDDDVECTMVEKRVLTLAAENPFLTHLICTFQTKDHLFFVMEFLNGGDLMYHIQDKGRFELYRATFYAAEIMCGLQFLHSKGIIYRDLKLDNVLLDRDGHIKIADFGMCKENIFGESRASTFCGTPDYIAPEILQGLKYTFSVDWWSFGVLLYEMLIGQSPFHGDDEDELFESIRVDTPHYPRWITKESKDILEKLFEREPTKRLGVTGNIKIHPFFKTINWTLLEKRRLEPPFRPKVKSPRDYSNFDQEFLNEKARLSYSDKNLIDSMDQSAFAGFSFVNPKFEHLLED
Cyclin-dependent kinase 7, sequence (P50613 whole entry): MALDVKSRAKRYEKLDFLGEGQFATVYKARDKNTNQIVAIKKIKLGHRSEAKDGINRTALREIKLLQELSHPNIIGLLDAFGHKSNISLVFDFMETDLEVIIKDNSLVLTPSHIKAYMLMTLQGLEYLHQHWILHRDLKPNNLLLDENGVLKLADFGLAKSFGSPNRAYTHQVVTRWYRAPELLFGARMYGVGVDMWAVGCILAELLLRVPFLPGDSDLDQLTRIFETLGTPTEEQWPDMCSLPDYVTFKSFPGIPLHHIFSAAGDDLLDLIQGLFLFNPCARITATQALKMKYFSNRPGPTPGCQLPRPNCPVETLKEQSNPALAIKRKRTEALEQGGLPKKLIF
Glycogen synthase kinase-3 beta, sequence (P49841 whole entry): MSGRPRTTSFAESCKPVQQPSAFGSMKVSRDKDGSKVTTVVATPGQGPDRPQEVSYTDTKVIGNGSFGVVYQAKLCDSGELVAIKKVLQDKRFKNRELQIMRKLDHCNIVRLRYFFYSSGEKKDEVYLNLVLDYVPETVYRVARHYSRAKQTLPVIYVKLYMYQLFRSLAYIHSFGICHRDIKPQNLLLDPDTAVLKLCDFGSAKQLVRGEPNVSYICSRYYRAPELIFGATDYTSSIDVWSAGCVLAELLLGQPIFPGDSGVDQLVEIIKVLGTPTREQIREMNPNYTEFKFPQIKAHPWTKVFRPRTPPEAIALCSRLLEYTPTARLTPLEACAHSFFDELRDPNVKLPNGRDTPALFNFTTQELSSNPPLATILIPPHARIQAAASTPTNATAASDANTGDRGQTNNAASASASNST
Aurora kinase B, sequence (Q96GD4 whole entry): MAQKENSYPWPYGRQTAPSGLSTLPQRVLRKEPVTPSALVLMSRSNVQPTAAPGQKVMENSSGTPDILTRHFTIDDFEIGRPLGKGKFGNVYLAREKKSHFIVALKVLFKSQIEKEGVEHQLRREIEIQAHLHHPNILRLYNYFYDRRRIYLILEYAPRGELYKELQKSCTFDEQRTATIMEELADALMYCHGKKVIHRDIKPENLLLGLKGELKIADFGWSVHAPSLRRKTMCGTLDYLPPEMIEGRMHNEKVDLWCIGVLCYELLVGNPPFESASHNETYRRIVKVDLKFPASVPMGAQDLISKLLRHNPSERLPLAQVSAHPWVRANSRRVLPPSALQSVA
Serine/threonine-protein kinase pim-1, sequence (P11309 whole entry): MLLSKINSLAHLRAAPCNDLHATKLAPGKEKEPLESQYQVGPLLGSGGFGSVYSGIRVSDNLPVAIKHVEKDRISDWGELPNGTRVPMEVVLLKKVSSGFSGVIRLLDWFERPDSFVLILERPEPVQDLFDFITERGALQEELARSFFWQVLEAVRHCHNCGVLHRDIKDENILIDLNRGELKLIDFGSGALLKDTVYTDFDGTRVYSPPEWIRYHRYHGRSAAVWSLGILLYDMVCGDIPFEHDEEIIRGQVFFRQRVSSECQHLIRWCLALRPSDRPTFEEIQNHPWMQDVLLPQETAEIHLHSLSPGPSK
Non-receptor tyrosine-protein kinase TYK2, sequence (P29597 whole entry): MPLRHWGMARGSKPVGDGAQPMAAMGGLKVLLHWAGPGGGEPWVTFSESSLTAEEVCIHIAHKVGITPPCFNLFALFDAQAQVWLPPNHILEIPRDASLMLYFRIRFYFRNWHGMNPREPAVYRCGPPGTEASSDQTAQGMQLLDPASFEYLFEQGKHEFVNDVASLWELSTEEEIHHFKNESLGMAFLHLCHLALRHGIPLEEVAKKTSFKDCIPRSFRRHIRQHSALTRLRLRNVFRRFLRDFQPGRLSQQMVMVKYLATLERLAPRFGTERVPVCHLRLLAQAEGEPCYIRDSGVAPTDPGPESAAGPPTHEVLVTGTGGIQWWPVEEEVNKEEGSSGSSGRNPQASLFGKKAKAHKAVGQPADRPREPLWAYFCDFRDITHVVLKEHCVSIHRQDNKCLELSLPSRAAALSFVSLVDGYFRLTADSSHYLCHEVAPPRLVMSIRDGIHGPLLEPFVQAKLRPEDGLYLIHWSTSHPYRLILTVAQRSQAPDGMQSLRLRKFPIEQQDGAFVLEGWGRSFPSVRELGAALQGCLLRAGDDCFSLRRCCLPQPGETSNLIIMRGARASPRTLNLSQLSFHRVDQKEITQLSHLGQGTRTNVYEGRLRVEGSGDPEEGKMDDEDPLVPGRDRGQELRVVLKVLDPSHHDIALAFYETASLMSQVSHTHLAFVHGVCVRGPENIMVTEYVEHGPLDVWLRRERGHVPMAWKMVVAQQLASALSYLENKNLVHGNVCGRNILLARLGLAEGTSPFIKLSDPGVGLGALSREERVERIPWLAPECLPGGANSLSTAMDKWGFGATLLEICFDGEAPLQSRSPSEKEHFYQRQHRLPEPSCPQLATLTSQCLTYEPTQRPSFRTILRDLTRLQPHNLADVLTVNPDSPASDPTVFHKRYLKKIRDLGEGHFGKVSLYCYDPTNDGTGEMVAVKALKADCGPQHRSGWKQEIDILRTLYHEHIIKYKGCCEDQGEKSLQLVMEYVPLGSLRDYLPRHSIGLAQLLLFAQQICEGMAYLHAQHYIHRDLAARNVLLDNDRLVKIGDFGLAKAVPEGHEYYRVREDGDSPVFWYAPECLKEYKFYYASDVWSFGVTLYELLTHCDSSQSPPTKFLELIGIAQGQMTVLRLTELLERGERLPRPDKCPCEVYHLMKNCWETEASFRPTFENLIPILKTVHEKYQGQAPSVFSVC
Mitogen-activated protein kinase 10, sequence (P53779 whole entry): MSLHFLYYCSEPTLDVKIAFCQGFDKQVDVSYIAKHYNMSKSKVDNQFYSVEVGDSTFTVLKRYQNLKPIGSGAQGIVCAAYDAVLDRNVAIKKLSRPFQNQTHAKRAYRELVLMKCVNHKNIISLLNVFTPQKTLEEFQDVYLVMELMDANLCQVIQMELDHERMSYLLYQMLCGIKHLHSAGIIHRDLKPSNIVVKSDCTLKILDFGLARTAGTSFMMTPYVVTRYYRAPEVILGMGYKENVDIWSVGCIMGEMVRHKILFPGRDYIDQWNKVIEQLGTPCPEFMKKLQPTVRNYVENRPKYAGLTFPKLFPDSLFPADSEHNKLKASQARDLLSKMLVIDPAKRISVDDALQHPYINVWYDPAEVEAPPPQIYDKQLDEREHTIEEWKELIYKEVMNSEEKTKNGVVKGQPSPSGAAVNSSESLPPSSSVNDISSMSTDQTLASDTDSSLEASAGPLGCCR
RAC-gamma serine/threonine-protein kinase, sequence (Q9Y243 whole entry): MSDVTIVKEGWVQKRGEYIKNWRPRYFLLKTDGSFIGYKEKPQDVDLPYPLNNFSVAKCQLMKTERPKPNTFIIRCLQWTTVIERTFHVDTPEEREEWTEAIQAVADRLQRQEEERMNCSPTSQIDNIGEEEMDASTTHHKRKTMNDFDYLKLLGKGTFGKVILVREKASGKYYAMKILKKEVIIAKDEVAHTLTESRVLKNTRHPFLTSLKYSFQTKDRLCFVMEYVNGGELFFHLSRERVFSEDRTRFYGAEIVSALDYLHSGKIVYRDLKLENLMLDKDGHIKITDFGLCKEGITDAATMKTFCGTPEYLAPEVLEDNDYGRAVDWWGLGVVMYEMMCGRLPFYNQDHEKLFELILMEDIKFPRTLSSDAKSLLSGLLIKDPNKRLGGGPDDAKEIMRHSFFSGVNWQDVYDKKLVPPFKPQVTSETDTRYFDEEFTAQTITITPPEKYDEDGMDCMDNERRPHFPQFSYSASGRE

In general, IC50 refers to the concentration that inhibits the measured activity by half. A word on the AC50: it is the concentration at which the activity in the assay is half-maximal. With `O=C(COC(=O)c1ccc([N+](=O)[O-])s1)NCCc1ccccc1`, the IC50 in experiment [1] is 3230 nM (active). In addition, in experiment [2], the AC50 is 11000 nM (active).

For the molecule `COCC/N=c1\scc(-c2cccs2)n1/N=C/c1ccc(O)c(O)c1O`, the IC50 was > 11800 nM (not active) in experiment [3] and 23800 nM (active) in [4].

One may read the Ki as the dissociation constant of the complex between target and ligand, obtained from inhibition or displacement. For `OC1CCC(Nc2cc(Cl)nc(-c3c[nH]c4ncccc34)n2)CC1` (centres undefined), the Ki is > 6310 nM (inactive) in experiment [5]; 200 nM (active) in experiment [6]; 126 nM (active) in experiment [7]; > 3980 nM (inactive) in [8]; 1000 nM (active) in experiment [9]; > 2510 nM (inactive) in experiment [10]. The Ki in [11] is > 1580 nM (inactive); in experiment [12] it was > 1000 nM (inactive); in [13], 398 nM (active); in experiment [14], > 1260 nM (inactive); in experiment [15], > 1580 nM (inactive); in [16], > 2000 nM (inactive). For the same molecule, the Ki in experiment [17] is > 3980 nM (inactive); in experiment [18], 1000 nM (active); in [19], > 10000 nM (inactive); in [20], > 2000 nM (inactive); in [21] it was 1260 nM (active); in [22], > 1580 nM (inactive). Further, the Ki in experiment [23] was 316 nM (active); in experiment [24], > 794 nM (inactive); in experiment [25] it was 50.1 nM (active); in experiment [26], > 6310 nM (inactive); in experiment [27], > 2000 nM (inactive); in [28], 63.1 nM (active). Moreover, the Ki in experiment [29] is > 5010 nM (inactive); in [30], 1580 nM (active); in [31], > 3160 nM (inactive); in experiment [32], > 3160 nM (inactive); in experiment [33], > 2510 nM (inactive); in [34], 1000 nM (active).
